Consider 16 compounds from ChEMBL document CHEMBL4177670, “Potential antimicrobial agents from triazole-functionalized 2H-benzo[b][1,4]oxazin-3(4H)-ones” (2017).

Test [1] has as its system Raoultella planticola. In words: Bactericidal activity against Klebsiella planticola MTCC 530 measured after 24 hrs. The format is functional. As to conditions: MTCC 530, 24 h.
Test [2] deals with Raoultella planticola. The test is described as follows: Antibacterial activity against Klebsiella planticola MTCC 530 after 24 hrs by agar well diffusion method. Format: functional. To be noted: MTCC 530, 24 h. (Agar diffusion results depend on both activity and mobility in agar.)
In test [3] the test system is Staphylococcus aureus. In words: Bactericidal activity against Staphylococcus aureus MTCC 96 measured after 24 hrs. Format: functional. As to conditions: MTCC 96, 24 h.
The test system of test [4] is Staphylococcus aureus. The test is described as follows: Antibacterial activity against Staphylococcus aureus MTCC 96 after 24 hrs by agar well diffusion method. Format: functional. To be noted: MTCC 96, 24 h.
Test [5] relates to Candida albicans. The test is described as follows: Antifungal activity against Candida albicans MTCC 3017. Format: functional.
Test [6] relates to Escherichia coli. In words: Antibacterial activity against Escherichia coli MTCC 739 after 24 hrs by agar well diffusion method. The format is functional. To be noted: MTCC 739, 24 h.
Test [7] concerns Staphylococcus aureus. The test is described as follows: Antibacterial activity against Staphylococcus aureus MLS-16 MTCC 2940 after 24 hrs by agar well diffusion method. Format: functional. To be noted: MLS-16 MTCC 2940, 24 h.
Test [8] deals with Staphylococcus aureus. In words: Bactericidal activity against Staphylococcus aureus MLS-16 MTCC 2940 measured after 24 hrs. Format: functional. To be noted: MLS-16 MTCC 2940, 24 h.
Test [9] has as its system Escherichia coli. In words: Bactericidal activity against Escherichia coli MTCC 739 measured after 24 hrs. Format: functional. As to conditions: MTCC 739, 24 h.
The subject of test [10] is Candida albicans. In words: Fungicidal activity against Candida albicans MTCC 3017 measured after 24 hrs. The format is functional. To be noted: MTCC 3017, 24 h.
Test [11] has as its system Bacillus subtilis. In words: Antibacterial activity against Bacillus subtilis MTCC 121 after 24 hrs by agar well diffusion method. The format is functional. To be noted: MTCC 121, 24 h.
Test [12] has as its system Micrococcus luteus. In words: Bactericidal activity against Micrococcus luteus MTCC 2470 measured after 24 hrs. The format is functional. To be noted: MTCC 2470, 24 h.
For test [13], the system named is Micrococcus luteus. In words: Antibacterial activity against Micrococcus luteus MTCC 2470 after 24 hrs by agar well diffusion method. The format is functional. To be noted: MTCC 2470, 24 h.
The subject of test [14] is Bacillus subtilis. The test is described as follows: Bactericidal activity against Bacillus subtilis MTCC 121 measured after 24 hrs. Format: functional. As to conditions: MTCC 121, 24 h.
The subject of test [15] is Pseudomonas aeruginosa. In words: microbe, parasite or virus in culture. To be noted: MTCC 2453, 24 h.
Description: Bactericidal activity against Pseudomonas aeruginosa MTCC 2453 measured after 24 hrs

Structures are written as SMILES. In brackets after ≈: the same amount, converted by molar mass.

By MIC is commonly meant the lowest concentration that inhibits growth of the organism. Low readings indicate inhibition by little substance, high ones a need for much substance. Take `O=C1COc2ccccc2N1Cc1cn(-c2ccccc2)nn1`: the MBC in [1] and in [3] was 7.8 µg/mL (≈ 25.5 µM) throughout. Moreover, the MIC in test [2] and in test [4] was 3.9 µg/mL (≈ 12.7 µM) in each case.
Usually MFC stands for the lowest tested concentration that kills the fungus rather than only halting it. High values mean less potent killing, low ones more potent killing. Take `Cc1ccc(-n2cc(CN3C(=O)COc4ccccc43)nn2)cc1`: the MBC in test [1], in test [8] and in [9] was 7.8 µg/mL (≈ 24.3 µM) in each case. Also, the MIC is 7.8 µg/mL (≈ 24.3 µM) in test [5], 3.9 µg/mL (≈ 12.2 µM) in [2], 3.9 µg/mL (≈ 12.2 µM) in test [6] and 3.9 µg/mL (≈ 12.2 µM) in [7]. Further, the MFC in test [10] is 15.6 µg/mL (≈ 48.7 µM).
Consider `O=C1COc2ccccc2N1Cc1cn(-c2ccc(F)cc2)nn1`, for which the values for the MIC in test [5] and in [6] were 3.9 µg/mL (≈ 12 µM) and 7.8 µg/mL (≈ 24.1 µM), respectively. Moreover, in [9], the MBC was 15.6 µg/mL (≈ 48.1 µM). For the same compound, in test [10], the MFC stood at 7.8 µg/mL (≈ 24.1 µM).
In [5], `O=C1COc2ccccc2N1Cc1cn(-c2ccc(Cl)cc2)nn1` registered an MIC of 7.8 µg/mL (≈ 22.9 µM). In addition, in [10], the MFC was 15.6 µg/mL (≈ 45.8 µM).
Regarding `Cc1ccccc1-n1cc(CN2C(=O)COc3ccccc32)nn1`, the MBC in test [1], in test [8] and in [9] was 7.8 µg/mL (≈ 24.3 µM) in each case. Besides, the MIC was found to be 7.8 µg/mL (≈ 24.3 µM) in [5], 3.9 µg/mL (≈ 12.2 µM) in test [2], 3.9 µg/mL (≈ 12.2 µM) in [6] and 3.9 µg/mL (≈ 12.2 µM) in [7]. Besides, in [10], the MFC worked out at 15.6 µg/mL (≈ 48.7 µM).
Turning to `O=C1COc2ccc(Cl)cc2N1Cc1cn(Cc2ccccc2)nn1`, in [5], it took 7.8 µg/mL (≈ 22 µM) to inhibit growth (MIC). In addition, the MFC in [10] turned out to be 15.6 µg/mL (≈ 44 µM).
For `O=C1COc2ccccc2N1Cc1cn(Cc2ccccc2)nn1`, the MIC in [6] came out at 3.9 µg/mL (≈ 12.2 µM); in test [7] it was 1.9 µg/mL (≈ 5.93 µM). In addition, the MBC in test [8] came to 3.9 µg/mL (≈ 12.2 µM); in test [9] it was 7.8 µg/mL (≈ 24.3 µM).
With `O=C1COc2ccccc2N1Cc1cn(-c2ccc([N+](=O)[O-])cc2)nn1`, 15.6 µg/mL (≈ 44.4 µM) was the least that counted as inhibitory in [5] (MIC). For the same compound, the MFC in test [10] is 31.2 µg/mL (≈ 88.8 µM).
With `Cc1ccc(-n2cc(CN3C(=O)COc4ccc(Cl)cc43)nn2)cc1`, the MBC turned out to be 7.8 µg/mL (≈ 22 µM) in [1]; 3.9 µg/mL (≈ 11 µM) in test [12]; 3.9 µg/mL (≈ 11 µM) in test [3]; 3.9 µg/mL (≈ 11 µM) in [8]; 3.9 µg/mL (≈ 11 µM) in test [14]. Besides, the MIC in [11] turned out to be 1.9 µg/mL (≈ 5.36 µM); in test [13] it was 1.9 µg/mL (≈ 5.36 µM); in [5], 7.8 µg/mL (≈ 22 µM); in test [2] it was 3.9 µg/mL (≈ 11 µM); in test [7], 1.9 µg/mL (≈ 5.36 µM); in test [4], 1.9 µg/mL (≈ 5.36 µM). Also, the MFC in test [10] is 15.6 µg/mL (≈ 44 µM).
On to `COc1ccc(-n2cc(CN3C(=O)COc4ccc(Cl)cc43)nn2)cc1`, for which the MIC in test [5] came to 7.8 µg/mL (≈ 21 µM); in test [7] it was 1.9 µg/mL (≈ 5.12 µM). The compound further returned an MBC in [8] of 3.9 µg/mL (≈ 10.5 µM). Moreover, the minimal fungicidal concentration (MFC) in [10] was determined as 15.6 µg/mL (≈ 42.1 µM).
`COc1ccc(-n2cc(CN3C(=O)COc4ccccc43)nn2)cc1`: the minimal inhibitory concentration (MIC) in test [5] came to 3.9 µg/mL (≈ 11.6 µM); in test [6] it was 7.8 µg/mL (≈ 23.2 µM). In addition, in [9], the MBC stood at 15.6 µg/mL (≈ 46.4 µM). The MFC in [10] is 7.8 µg/mL (≈ 23.2 µM).
For `O=C(O)c1cn(C2CC2)c2cc(N3CCNCC3)c(F)cc2c1=O` [CIPROFLOXACIN], the MBC in test [1], in [12], in test [3], in [15], in [8] and in test [9] was 0.9 µg/mL (≈ 2.72 µM) each time. The same compound came in with an MBC in test [14] of 0.9 µg/mL (≈ 2.72 µM). Besides, the MIC in [11], in test [13], in test [2], in test [6], in test [7] and in test [4] was 0.9 µg/mL (≈ 2.72 µM) in each case.
For `Clc1ccc(COC(Cn2ccnc2)c2ccc(Cl)cc2Cl)c(Cl)c1` (centres undefined) [MICONAZOLE], the MIC in [5] is 7.8 µg/mL (≈ 18.7 µM). The MFC in [10] is 7.8 µg/mL (≈ 18.7 µM).
For the compound `O=C1COc2ccc(Cl)cc2N1Cc1cn(-c2ccc(F)cc2)nn1`, the MBC in test [1] amounted to 7.8 µg/mL (≈ 21.7 µM); in [12], 3.9 µg/mL (≈ 10.9 µM); in [3] it was 7.8 µg/mL (≈ 21.7 µM); in [8], 3.9 µg/mL (≈ 10.9 µM); in test [9], 7.8 µg/mL (≈ 21.7 µM); in test [14], 3.9 µg/mL (≈ 10.9 µM). Besides, the MIC is 1.9 µg/mL (≈ 5.3 µM) in test [11]; 1.9 µg/mL (≈ 5.3 µM) in test [13]; 7.8 µg/mL (≈ 21.7 µM) in test [5]; 3.9 µg/mL (≈ 10.9 µM) in test [2]; 3.9 µg/mL (≈ 10.9 µM) in [6]; 1.9 µg/mL (≈ 5.3 µM) in [7]. The compound also gave an MIC in [4] of 3.9 µg/mL (≈ 10.9 µM). In [10], this compound gave an MFC of 15.6 µg/mL (≈ 43.5 µM).
The compound `O=C1COc2ccc(Cl)cc2N1Cc1cn(-c2ccc([N+](=O)[O-])cc2)nn1` gave an MIC in test [5] of 7.8 µg/mL (≈ 20.2 µM). Further, in [10], the minimum fungicidal concentration (MFC) was determined as 15.6 µg/mL (≈ 40.4 µM).
For `Cc1ccccc1-n1cc(CN2C(=O)COc3ccc(Cl)cc32)nn1`, the MBC in [1] was determined as 7.8 µg/mL (≈ 22 µM); in [12] it was 3.9 µg/mL (≈ 11 µM); in [3], 3.9 µg/mL (≈ 11 µM); in test [8] it was 3.9 µg/mL (≈ 11 µM); in test [9], 7.8 µg/mL (≈ 22 µM); in test [14] it was 3.9 µg/mL (≈ 11 µM). Besides, the MIC in test [11] came to 1.9 µg/mL (≈ 5.36 µM); in [13], 1.9 µg/mL (≈ 5.36 µM); in test [5], 7.8 µg/mL (≈ 22 µM); in [2], 3.9 µg/mL (≈ 11 µM); in [6] it was 3.9 µg/mL (≈ 11 µM); in [7], 1.9 µg/mL (≈ 5.36 µM). In test [4], this compound registered an MIC of 1.9 µg/mL (≈ 5.36 µM). The compound further came in with an MFC in [10] of 15.6 µg/mL (≈ 44 µM).
